Data as given in patent US20250332143A1, “COMPOSITION COMPRISING ALOX5 INHIBITOR FOR PREVENTING OR TREATING SARCOPENIA” (PLUTO Inc., priority 2022, published 2025).

Experiments:
atrogin-1 and MuRF-1 = assay: qPCR of atrogin-1 and MuRF-1 in human myotubes; assay type: cell-based
Method: (§1) For quantitative real-time PCR, transcript levels of genes of interest were analyzed using the StepOnePlus real-time PCR system (Applied Biosystems, UK). Total RNA was reverse transcribed to prepare cDNA using AccuPower® RT PreMix (Bioneer Corporation). The obtained cDNA was subjected to real-time PCR according to the manufacturer's instructions with the following changes. PCR was performed in triplicate in a total volume of 20 μL 2× Power SYBR Green PCR Master Mix (Enzynomics, Republic of Korea) containing 200 nM (final concentration) of each specific primer and 1 μL of cDNA synthesized from 1 μg of total RNA. […] Denaturation was performed at 95° C. for 15 s, annealing was performed at 60° C. for 1 min, and extension was performed at 72° C. for 20 s with fluorescence detection at 72° C. after each cycle. After the final cycle, melting point analysis of all samples was performed within the range of 60 to 95° C. using continuous fluorescence detection. […] Results were expressed as relative expression levels for each gene. The synthesized cDNA was amplified by quantitative real-time PCR (qRT-PCR) or standard PCR.
Human-derived myoblasts were purchased from Thermo-Fisher Scientific (USA). […] Myotubes were stained with H&E. After light microscopy analysis of DIC captured images (Olympus CKX41), myotubes were measured using ImageJ 1.48 software (National Institutes of Health, USA).

[1] = system: differentiating C2C12 myoblasts; assay: Myogenesis of mouse myotubes differentiated in presence of compound; assay type: cell-based
Method: C2C12 murine skeletal muscle myoblasts were obtained from Koram Biotech (Republic of Korea). The cells were maintained in DMEM growth medium supplemented with 10% FBS, 1% penicillin, and streptomycin. When myoblasts proliferated to approximately 90%, they were differentiated into muscle fibers by treating them with DMEM differentiation medium supplemented with 2% HS, 1% penicillin, and streptomycin for 96 hours. Differentiated muscle fibers were treated with 10 μM Dex for 24 hours to induce sarcopenia. To evaluate the degree of differentiation of muscle cells, differentiating myoblasts were treated with the corresponding compound in differentiation medium for 24 or 48 hours.
The concentration of intracellular protein was measured using the Bradford assay (Bio-Rad, USA, CA), and electrophoresis was performed by loading on 10% and 12% polyacrylamide gels. Afterwards, the separated proteins were transferred to a PVDF membrane, and the primary antibody used was diluted 1:1000 in TBS-T containing 5% skim milk and incubated overnight at 4° C. Secondary antibodies were diluted 1:2000 and incubated for 35 minutes at room temperature (RT). Band intensity was measured using ImageJ 1.52 software (National Institutes of Health, USA), and intracellular protein was normalized to α-tubulin.
as §1, with “Corporation).” for “Corporation). The obtained cDNA was subjected to real-time PCR according to the manufacturer's instructions with the following changes. PCR was performed in triplicate in a total volume of 20 μL 2× Power SYBR Green PCR Master Mix (Enzynomics, Republic of Korea) containing 200 nM (final concentration) of each specific primer and 1 μL of cDNA synthesized from 1 μg of total RNA.”

## CC(C)OC(=O)C(C(=O)OC(C)C)=C1SC=CS1 [malotilate, Malotilate]
atrogin-1 and MuRF-1
  MuRF-1 expression: significantly reduced
  atrogin-1 expression: significantly reduced
[1]; after 24 h of treatment, qPCR
  expression of master gene regulators of the myogenic program (Pax7, Myf5, MyoG, Myh2): no significant changes
[1]; differentiated myotubes
  phosphorylation level of Akt: not significantly altered
[1]; during myogenesis, Western blot
  expression of differentiation marker Myh2: not affected
